Legend:
SN12C = experiment: Antiproliferative activity against human SN12C cells after 72 hrs by ViaLight assay; assay type: functional
CCRF-CEM = experiment: cells; conditions: Homo sapiens, 72 h
Description: Antiproliferative activity against human CCRF-CEM cells after 72 hrs by ViaLight assay

[1] = biological target: Cyclin-dependent kinase 5/CDK5 activator 1 (Homo sapiens, UniProt Q00535)
Description: Inhibition of human recombinant CDK5/p25 expressed in Escherichia coli

HeLa = experiment: Antiproliferative activity against human HeLa cells after 72 hrs by ViaLight assay; assay type: functional, cell-based
HEK-293T = experiment: Antiproliferative activity against human 293T cells after 72 hrs by ViaLight assay; assay type: functional, cell-based
[2] = biological target: Cyclin-dependent kinase 7/ cyclin H (Homo sapiens, UniProt P50613); experiment: Inhibition of human recombinant CDK7/cyclin H expressed in baculovirus-infected insect cells
Sequence of Cyclin-dependent kinase 7/ cyclin H (P51946 whole entry): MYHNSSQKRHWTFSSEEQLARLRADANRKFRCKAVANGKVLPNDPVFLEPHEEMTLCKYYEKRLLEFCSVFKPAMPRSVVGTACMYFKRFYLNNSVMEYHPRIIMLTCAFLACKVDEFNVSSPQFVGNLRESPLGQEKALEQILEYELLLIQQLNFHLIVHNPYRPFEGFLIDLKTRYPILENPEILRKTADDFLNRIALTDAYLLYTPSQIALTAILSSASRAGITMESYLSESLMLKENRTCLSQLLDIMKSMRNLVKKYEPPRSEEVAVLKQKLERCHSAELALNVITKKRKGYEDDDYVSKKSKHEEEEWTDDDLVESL
Sequence of Cyclin-dependent kinase 7/ cyclin H (P50613 whole entry): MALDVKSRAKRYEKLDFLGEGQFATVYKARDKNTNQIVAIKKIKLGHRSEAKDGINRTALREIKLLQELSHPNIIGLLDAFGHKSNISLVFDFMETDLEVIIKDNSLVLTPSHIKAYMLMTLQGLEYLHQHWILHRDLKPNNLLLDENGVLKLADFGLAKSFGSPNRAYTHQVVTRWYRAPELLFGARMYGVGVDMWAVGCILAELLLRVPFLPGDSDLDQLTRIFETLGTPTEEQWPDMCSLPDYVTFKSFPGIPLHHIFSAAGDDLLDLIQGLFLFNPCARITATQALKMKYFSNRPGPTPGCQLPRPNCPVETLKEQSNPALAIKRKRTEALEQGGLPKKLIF

OVCAR-8 = experiment: Antiproliferative activity against human OVCAR8 cells after 72 hrs by ViaLight assay; assay type: functional; conditions: OVCAR-8, 72 h
SK-MEL-28 = experiment: Antiproliferative activity against human SK-MEL-28 cells after 72 hrs by ViaLight assay; assay type: functional; conditions: SK-MEL-28, 72 h
SW-620 = experiment: cells; conditions: Homo sapiens, SW-620, 72 h
Description: Antiproliferative activity against human SW620 cells after 72 hrs by ViaLight assay

U-937 = experiment: Antiproliferative activity against human U937 cells after 72 hrs by ViaLight assay; assay type: functional, cell-based
Raji = experiment: Antiproliferative activity against human Raji cells after 72 hrs by ViaLight assay; assay type: functional, cell-based
CDK9/cyclin T1 = CDK9/cyclin T1 (Homo sapiens, UniProt P50750); experiment: Inhibition of human recombinant CDK9/cyclin T expressed in baculovirus-infected insect cells
Sequence of CDK9/cyclin T1 (O60563 whole entry): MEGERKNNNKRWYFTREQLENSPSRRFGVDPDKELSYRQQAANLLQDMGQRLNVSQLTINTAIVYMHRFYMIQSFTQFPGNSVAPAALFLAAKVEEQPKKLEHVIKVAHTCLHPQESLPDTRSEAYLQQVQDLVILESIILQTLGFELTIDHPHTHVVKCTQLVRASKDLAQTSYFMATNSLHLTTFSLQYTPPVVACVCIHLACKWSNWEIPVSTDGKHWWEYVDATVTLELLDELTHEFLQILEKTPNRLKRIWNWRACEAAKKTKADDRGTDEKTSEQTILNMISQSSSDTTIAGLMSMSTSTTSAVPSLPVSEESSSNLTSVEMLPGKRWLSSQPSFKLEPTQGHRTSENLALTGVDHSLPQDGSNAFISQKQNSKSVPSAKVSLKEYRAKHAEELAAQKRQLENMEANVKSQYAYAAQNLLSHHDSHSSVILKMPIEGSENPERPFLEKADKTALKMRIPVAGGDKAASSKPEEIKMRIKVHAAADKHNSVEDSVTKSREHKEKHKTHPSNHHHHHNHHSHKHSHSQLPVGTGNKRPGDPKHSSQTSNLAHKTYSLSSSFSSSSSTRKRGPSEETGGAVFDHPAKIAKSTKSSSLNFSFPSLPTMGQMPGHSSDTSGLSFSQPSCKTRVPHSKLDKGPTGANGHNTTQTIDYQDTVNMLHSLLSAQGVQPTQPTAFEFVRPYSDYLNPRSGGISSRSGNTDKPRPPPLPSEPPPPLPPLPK
Sequence of CDK9/cyclin T1 (P50750 whole entry): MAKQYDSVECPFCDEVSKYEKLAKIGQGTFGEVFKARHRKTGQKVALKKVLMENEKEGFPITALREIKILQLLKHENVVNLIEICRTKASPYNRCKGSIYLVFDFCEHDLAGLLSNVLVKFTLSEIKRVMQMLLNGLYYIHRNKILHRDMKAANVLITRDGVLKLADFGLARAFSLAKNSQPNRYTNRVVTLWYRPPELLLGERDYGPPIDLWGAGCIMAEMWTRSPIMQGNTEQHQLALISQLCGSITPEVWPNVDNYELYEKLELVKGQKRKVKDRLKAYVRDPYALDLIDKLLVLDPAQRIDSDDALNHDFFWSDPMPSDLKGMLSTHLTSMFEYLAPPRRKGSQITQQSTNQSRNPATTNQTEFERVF

[3] = read-out: LC50 (the source's name)
[4] = read-out: pLC50 (the source's name) (converted)

Sequence of Cyclin-dependent kinase 5/CDK5 activator 1 (Q00535 whole entry): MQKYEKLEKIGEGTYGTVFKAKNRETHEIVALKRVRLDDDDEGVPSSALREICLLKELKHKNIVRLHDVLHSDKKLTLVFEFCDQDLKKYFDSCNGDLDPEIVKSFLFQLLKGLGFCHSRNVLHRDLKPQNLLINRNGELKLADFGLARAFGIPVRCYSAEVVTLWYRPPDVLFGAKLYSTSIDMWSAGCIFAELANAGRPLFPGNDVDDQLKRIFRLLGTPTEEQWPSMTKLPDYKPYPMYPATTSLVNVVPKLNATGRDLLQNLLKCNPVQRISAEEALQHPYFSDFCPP
Sequence of Cyclin-dependent kinase 5/CDK5 activator 1 (Q15078 whole entry, further chain): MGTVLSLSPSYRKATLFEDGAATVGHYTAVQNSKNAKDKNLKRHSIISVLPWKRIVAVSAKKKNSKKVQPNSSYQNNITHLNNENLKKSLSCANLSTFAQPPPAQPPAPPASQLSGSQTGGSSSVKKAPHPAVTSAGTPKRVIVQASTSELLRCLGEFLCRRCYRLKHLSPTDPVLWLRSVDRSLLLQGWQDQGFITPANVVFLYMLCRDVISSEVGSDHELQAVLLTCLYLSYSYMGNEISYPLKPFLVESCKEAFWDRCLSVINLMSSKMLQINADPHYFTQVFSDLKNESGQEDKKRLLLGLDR

`CC[C@H](CO)Nc1nc(NCc2ccccc2)n2ncc(C(C)C)c2n1` was tested, and the GI50 (SN12C; read-out: GI50) was 2.41 µM, the CC50 (SN12C; [3]) was 58.1 µM and the TGI (SN12C; read-out: TGI) was 14.4 µM. For the same molecule, the GI50 (SN12C; read-out: pGI50 (converted)) was 3.02 µM, the CC50 (SN12C; [4]) was 57.5 µM and the TGI (SN12C; read-out: pTGI (converted)) was 14.5 µM. The GI50 (CCRF-CEM) was 0.65 µM, the TGI (CCRF-CEM) was 9.26 µM and the CC50 (CCRF-CEM; read-out: LC50) was greater than 100 µM. The GI50 (CCRF-CEM; read-out: pGI50 (converted)) was 0.646 µM, the CC50 (CCRF-CEM; read-out: pLC50 (converted)) was 100 µM and the TGI (CCRF-CEM; read-out: pTGI) was 9.33 µM. For the same molecule, the IC50 [1] was 0.07 µM, the Activity (HeLa) was “Dose-dependent effect” and the Activity (HEK-293T) was “Dose-dependent effect”. For the same molecule, the IC50 [2] was 0.5 µM, the GI50 (OVCAR-8; read-out: GI50) was 2.15 µM and the CC50 (OVCAR-8; [3]) was greater than 100 µM. It also gave a TGI (OVCAR-8; read-out: TGI) of 54.8 µM, a GI50 (OVCAR-8; read-out: pGI50 (converted)) of 2.45 µM and a CC50 (OVCAR-8; [4]) of 100 µM. For the same molecule, the TGI (OVCAR-8; read-out: pTGI (converted)) was 55 µM, the GI50 (SK-MEL-28; read-out: GI50) was 1.16 µM and the CC50 (SK-MEL-28; [3]) was 16.9 µM. It also gave a TGI (SK-MEL-28; read-out: TGI) of 3.82 µM, a GI50 (SK-MEL-28; read-out: pGI50 (converted)) of 1.15 µM and a CC50 (SK-MEL-28; [4]) of 17 µM. It also gave a TGI (SK-MEL-28; read-out: pTGI (converted)) of 3.8 µM, a GI50 (SW-620) of 1.38 µM and a TGI (SW-620) of 5.56 µM. The CC50 (SW-620; read-out: LC50) was greater than 100 µM, the GI50 (SW-620; read-out: pGI50 (converted)) was 1.12 µM and the CC50 (SW-620; read-out: pLC50 (converted)) was 100 µM. The TGI (SW-620; read-out: pTGI) was 5.5 µM, the Activity (U-937) was “Dose-dependent effect” and the Activity (Raji) was “Dose-dependent effect”. The IC50 (CDK9/cyclin T1) was 0.043 µM.
